Drawing on US9481796B2, “Method for producing nanoparticles” (M. Technique Co., Ltd., priority 2010, dated 2016), this text covers Volume-average particle diameter for one compound.

The series is described as follows: Volume-average particle diameter of benzbromarone nanoparticles (Nanotrac particle size distribution), Example 2-2. The conditions noted are these: ethanol solution of 3% benzbromarone/0.1% Tween 80 into pure water. Format: physicochemical. How it is done:
Particle size distribution was measured by using a Nanotrac particle size distribution measurement instrument (UPA-EX150, manufactured by Nikkiso Co., Ltd.), and the volume-average particle diameter was taken. An ethanol solution in which benzbromarone and Tween 80 (dispersant) were dissolved with the concentrations thereof being 3% for benzbromarone and 0.1% for Tween 80 was introduced as a second fluid into between the processing surfaces 1 and 2 at a rate of 10 mL/minute, together with pure water as a first fluid from the center at supply pressure of 0.25 MPa, a rotation speed of 700 rpm, and a rate of 200 g/minute, whereby the two fluids were mixed. The dispersion solution of benzbromarone was discharged. Temperature conditions of the first fluid and the second fluid, and results of particle size distribution of the obtained dispersion solution are shown in Table 3. The particle diameters of nanoparticles obtained in respective conditions were confirmed by a transmission electron microscope (TEM); it was confirmed that the particle diameter confirmed by the TEM picture was identical to the measurement result of the particle size distribution. The SEM picture of the nanoparticles obtained under the temperature conditions of 25° C. for the first fluid and 25° C. for the second fluid (ΔT=0° C.) is shown in FIG. 17; and the TEM picture of the nanoparticles obtained under the temperature conditions of 5° C. for the first fluid and 35° C. for the second fluid (ΔT=30° C.) is shown in FIG. 18, respectively.

Take `CCc1oc2ccccc2c1C(=O)c1cc(Br)c(O)c(Br)c1` [benzbromarone]: the Volume-average particle diameter is recorded as 229.3 nm (T1 5°C, T2 5°C, ΔT 0); 204.6 nm (T1 5°C, T2 8°C, ΔT 3); 51.3 nm (T1 5°C, T2 10°C, ΔT 5); 58.6 nm (T1 5°C, T2 35°C, ΔT 30); 208.4 nm (T1 25°C, T2 25°C, ΔT 0).
